Data: patent EP0269322B1, “Virginiamycin analogs” (Merck & Co., Inc., priority 1986, dated 1988)
Converted amounts (≈) assume the structure as drawn.

Key:
Gastrin Receptor = biological target: T1, Gastrin Receptor (Cavia porcellus, UniProt H0VZC5); experiment: Gastrin receptor binding in guinea pig gastric glands (125I-gastrin); conditions: ¹²⁵I-gastrin, 25°C for 30 minutes, read-out: IC₅₀
T1 construct: from tissue; host or cells: guinea pig gastric mucosal glands
T1 sequence (H0VZC5 1-426): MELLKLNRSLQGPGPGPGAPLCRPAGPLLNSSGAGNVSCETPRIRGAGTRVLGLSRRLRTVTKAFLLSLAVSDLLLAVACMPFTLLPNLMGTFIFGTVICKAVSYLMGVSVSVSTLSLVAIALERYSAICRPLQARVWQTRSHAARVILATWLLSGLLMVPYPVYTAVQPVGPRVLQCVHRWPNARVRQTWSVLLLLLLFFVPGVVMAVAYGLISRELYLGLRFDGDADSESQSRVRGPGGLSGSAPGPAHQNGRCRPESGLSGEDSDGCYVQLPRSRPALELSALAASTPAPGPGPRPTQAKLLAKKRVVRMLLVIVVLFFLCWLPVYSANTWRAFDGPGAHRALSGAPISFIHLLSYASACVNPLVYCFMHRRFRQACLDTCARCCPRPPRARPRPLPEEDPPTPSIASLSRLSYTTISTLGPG
Protocol: Guinea pig gastric mucosal glands were prepared by the procedure of Praissman et al., J. Receptor Res. 3:647 (1983). Stomachs from male Hartley guinea pigs (250-400 g body weight) were washed thoroughly and minced with fine scissors in HEPES buffer consisting of the following: 130 mM NaCl, 12 mM NaHCO₃, 3 mM NaH₂PO₄, 3 mM […], 3 mM K₂HPO₄, 2 mM MgSO₄, 1 mM CaCl₂, 5 mM glucose and 4 mM L-glutamine, 25 mM HEPES at pH 7.4. The minced tissues were washed and incubated in a 37°C shaker bath for 40 minutes, with HEPES buffer containing 0.1% collagenase and 0.1% bovine serum albumin (BSA), and bubbled with 95% O₂ and 5% CO₂. The tissues were passed twice through a 5 ml glass syringe to liberate the gastric glands, and then filtered through 200 mesh nylon. The filtered glands were centrifuged at 270 ^x g for 5 minutes and washed twice by resuspension and centrifugation.
The washed guinea pig gastric glands were resuspended in 25 ml of HEPES buffer containing 0.25 mg/ml of bacitracin. For binding studies, 14.2 µl of 50% MeOH/H₂O (for total binding) or gastrin (1 µM final concentration, for nonspecific binding) or broth or test compound from Examples 2, 3 or 4 and 20 µl of ¹²⁵I-gastrin (New England Nuclear [NEN], 20,000 cpm 20 µl) were added to 220 µl of gastric glands in triplicate tubes which were aerated with 95% O₂ and 5% CO₂ and capped. The reaction mixtures, after incubation at 25°C for 30 minutes in a shaking water bath, were filtered under reduced pressure on glass GF/B filters (Whatman) and immediately washed with 3 ^x 4 ml of HEPES buffer containing 0.1% BSA fraction V. The radioactivity on the filters was measured using a Beckman 5500 gamma counter for ¹²⁵I-gastrin.

Micrococcus luteus = experiment: Antibiotic activity, filter paper disc agar diffusion MIC; format: cell-based; conditions: filter paper discs on agar, 15 hours at 28°C
Protocol: The compounds of Formulae I, II, and IV and virginiamycin M₁ from Example 2 were assayed for antibiotic activity following a method described by Matsen and Barry, Manual of Clinical Microbiology, Lennette, Spaulding, and Truant, Eds., American Society for Microbiology, Washington, D.C., p. 418 (1974). The minimal inhibitory concentrations (MIC) were determined by applying serial dilutions of the compounds of Formulae I, III, and IV and virginiamycin M₁ to standard filter paper discs. The concent↑ation of the test compounds ↑anged f↑om […] to 3.0 µg per disc in 20 µl of diluent. The test organism, Micrococcus luteus, was innoculated on the surface of an agar based nutrient medium in petri plates and the discs placed on the surface of the medium. The nutrient media consisted of nutrient broth supplemented with 0.2% yeast extract and 1.5% agar. The innoculated plates were incubated for 15 hours at 28°C and the zones of inhibition determined. The MIC of each compound was determined by the method described in Matsen and Barry, supra.

Row | Structure (SMILES) | IC50 (Gastrin Receptor) [nM] | MIC (Micrococcus luteus) [µM]
1 | CC1=C\C=C\[C@@H](O)Cc2nc(co2)C(=O)N2CCC=C2C(=O)O[C@H](C(C)C)[C@H](C)/C=C/C(=O)NC\C=C\1 [Compound I] | 12 | 90 (≈ 45.9 µg/mL)
2 | CC1=C\C=C\C(=O)Cc2nc(co2)C(=O)N2CCC=C2C(=O)O[C@H](C(C)C)[C@H](C)/C=C/C(=O)NC\C=C\1 [Compound III] | 90 | 250 (≈ 127 µg/mL)
3 | CC1=C\C=C\[C@H](O)Cc2nc(co2)C(=O)N2CCC=C2C(=O)O[C@H](C(C)C)[C@H](C)/C=C/C(=O)NC\C=C\1 [Compound II] | 13 | 
4 | CC1=C\[C@@H](O)CC(=O)Cc2nc(co2)C(=O)N2CCC=C2C(=O)O[C@H](C(C)C)[C@H](C)/C=C/C(=O)NC\C=C\1 [Virginiamycin M₁, reference compound] | 710 | 1.5 (≈ 0.788 µg/mL)
5 | CC1=C\CCC(=O)Cc2nc(co2)C(=O)N2CCC=C2C(=O)O[C@H](C(C)C)[C@H](C)/C=C/C(=O)NC\C=C\1 [IV] | 360 | 15 (≈ 7.64 µg/mL)
